Data from PubChem BioAssay (NCI).
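Five compound concentrations were applied to cells in 96-well plates for 48 hours; endpoints were derived by simple linear interpolation of the resulting dose-response curve. The concentration for 50% growth inhibition is given as GI50. TGI is the concentration that stops growth completely.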

Assays:
Test in all cases: growth of human tumour cells (NCI), 48 h
[1] = tested on: A549 NSCLC
[2] = tested on: CCRF-CEM leukemia
[3] = tested on: KM12 colon
[4] = tested on: NCI-H460 lung
[5] = tested on: NCI-H522 lung
[6] = tested on: OVCAR-5 ovarian
[7] = tested on: OVCAR-8 ovarian
[8] = tested on: SK-OV-3 ovarian
[9] = tested on: SNB-75 CNS
[10] = tested on: SR leukemia

SMILES	GI50 [1] [µM]	TGI [1] [µM]	GI50 [2] [µM]	TGI [2] [µM]	GI50 [3] [µM]	TGI [3] [µM]	GI50 [4] [µM]	TGI [4] [µM]	GI50 [5] [µM]	TGI [5] [µM]	GI50 [6] [µM]	TGI [6] [µM]	GI50 [7] [µM]	TGI [7] [µM]	GI50 [8] [µM]	TGI [8] [µM]	GI50 [9] [µM]	TGI [9] [µM]	GI50 [10] [µM]	TGI [10] [µM]
COc1cnc2c(c1)C(=O)c1c-2n(CCCN2CCCC2)c(=O)c2cc(Cl)ccc12	0.605	10.2	0.025	9.05	2.11	10.3	0.0217	5.51	0.27	13.8	5.02	11.3	0.813	12.2	1.47	10.5	0.347	7.79	0.0499	7.9
Cc1ncc([N+](=O)[O-])n1CCNC(=O)CCCn1cnc([N+](=O)[O-])n1		> 100		> 100		> 100		> 100		> 100		> 100		> 100		> 100		> 100		> 100
O=c1oc2ccc(Cl)cc2c(=O)n1-c1ccc(I)cc1F	1.01	> 100	0.702	5.14	2.21	5.55	0.199	> 23.8	0.111	1.83	3.58	> 100	0.323	15	0.451	4.31	0.2	1.36	0.228	5.97
COc1cc2cc(Oc3ccc(NC(=O)c4ccc(Cl)c(C(F)(F)F)c4)cc3)c(C)nc2cc1OC	10.3	> 100	7.56	> 100	12.3	> 100	11.5	> 100	8.78	83.3	55.9	> 100	22.9	> 100	66	> 100	16.4	> 100	14.3	> 100
O=c1cccccc1NCCCCCCCCCNc1cccccc1=O		> 100		> 100		33.3		27.7		52.9		58		34.7		99.8		62.9		45.7
Nc1nc(Nc2cccc(F)c2)nc2ccccc12	36.9	> 100	24.6	> 100	18.1	42.4	20.1	57.3	23.9	54	17.4	43.5	31.9	> 100	35.3	> 100	15.8	50.4	24.7	80.7
